Calls of active or inactive are those of the source.
Experiments:
[1] = molecular target: T1, Serine/threonine-protein kinase TAO2 (Homo sapiens, UniProt Q9UL54)
T1 sequence (Q9UL54 whole entry): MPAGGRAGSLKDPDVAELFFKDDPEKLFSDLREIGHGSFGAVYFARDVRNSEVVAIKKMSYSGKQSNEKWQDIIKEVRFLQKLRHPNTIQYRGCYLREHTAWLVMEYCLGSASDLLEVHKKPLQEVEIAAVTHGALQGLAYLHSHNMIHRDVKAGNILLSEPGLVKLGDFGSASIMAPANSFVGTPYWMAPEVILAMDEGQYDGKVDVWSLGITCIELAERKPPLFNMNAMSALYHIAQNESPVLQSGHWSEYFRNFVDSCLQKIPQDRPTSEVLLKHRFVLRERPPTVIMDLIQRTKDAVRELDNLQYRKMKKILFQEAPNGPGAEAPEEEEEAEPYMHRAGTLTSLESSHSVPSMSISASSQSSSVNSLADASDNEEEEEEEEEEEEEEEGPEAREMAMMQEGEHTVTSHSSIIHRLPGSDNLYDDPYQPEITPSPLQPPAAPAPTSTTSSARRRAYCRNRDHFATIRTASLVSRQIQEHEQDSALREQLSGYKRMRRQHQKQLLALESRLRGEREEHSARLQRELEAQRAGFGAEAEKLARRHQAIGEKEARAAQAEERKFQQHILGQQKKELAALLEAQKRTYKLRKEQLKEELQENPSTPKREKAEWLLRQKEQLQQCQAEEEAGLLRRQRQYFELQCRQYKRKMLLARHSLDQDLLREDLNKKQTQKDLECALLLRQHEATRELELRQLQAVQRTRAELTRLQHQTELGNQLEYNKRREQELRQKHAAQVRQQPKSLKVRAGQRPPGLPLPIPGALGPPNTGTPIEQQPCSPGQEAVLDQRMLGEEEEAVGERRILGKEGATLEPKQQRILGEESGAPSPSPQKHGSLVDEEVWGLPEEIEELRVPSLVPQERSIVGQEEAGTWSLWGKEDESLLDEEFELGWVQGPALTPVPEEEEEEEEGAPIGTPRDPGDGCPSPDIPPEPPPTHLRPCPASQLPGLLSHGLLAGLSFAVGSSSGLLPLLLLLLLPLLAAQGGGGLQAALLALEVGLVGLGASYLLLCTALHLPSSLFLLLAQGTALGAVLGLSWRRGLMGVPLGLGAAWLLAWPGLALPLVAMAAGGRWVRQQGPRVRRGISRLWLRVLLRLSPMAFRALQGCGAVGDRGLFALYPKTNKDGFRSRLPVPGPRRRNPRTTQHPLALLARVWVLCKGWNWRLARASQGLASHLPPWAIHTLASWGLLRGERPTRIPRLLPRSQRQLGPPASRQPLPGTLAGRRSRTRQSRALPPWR

[2] = molecular target: Rho-associated protein kinase 1 (Homo sapiens, UniProt Q13464)
Rho-associated protein kinase 1, sequence (Q13464 whole entry): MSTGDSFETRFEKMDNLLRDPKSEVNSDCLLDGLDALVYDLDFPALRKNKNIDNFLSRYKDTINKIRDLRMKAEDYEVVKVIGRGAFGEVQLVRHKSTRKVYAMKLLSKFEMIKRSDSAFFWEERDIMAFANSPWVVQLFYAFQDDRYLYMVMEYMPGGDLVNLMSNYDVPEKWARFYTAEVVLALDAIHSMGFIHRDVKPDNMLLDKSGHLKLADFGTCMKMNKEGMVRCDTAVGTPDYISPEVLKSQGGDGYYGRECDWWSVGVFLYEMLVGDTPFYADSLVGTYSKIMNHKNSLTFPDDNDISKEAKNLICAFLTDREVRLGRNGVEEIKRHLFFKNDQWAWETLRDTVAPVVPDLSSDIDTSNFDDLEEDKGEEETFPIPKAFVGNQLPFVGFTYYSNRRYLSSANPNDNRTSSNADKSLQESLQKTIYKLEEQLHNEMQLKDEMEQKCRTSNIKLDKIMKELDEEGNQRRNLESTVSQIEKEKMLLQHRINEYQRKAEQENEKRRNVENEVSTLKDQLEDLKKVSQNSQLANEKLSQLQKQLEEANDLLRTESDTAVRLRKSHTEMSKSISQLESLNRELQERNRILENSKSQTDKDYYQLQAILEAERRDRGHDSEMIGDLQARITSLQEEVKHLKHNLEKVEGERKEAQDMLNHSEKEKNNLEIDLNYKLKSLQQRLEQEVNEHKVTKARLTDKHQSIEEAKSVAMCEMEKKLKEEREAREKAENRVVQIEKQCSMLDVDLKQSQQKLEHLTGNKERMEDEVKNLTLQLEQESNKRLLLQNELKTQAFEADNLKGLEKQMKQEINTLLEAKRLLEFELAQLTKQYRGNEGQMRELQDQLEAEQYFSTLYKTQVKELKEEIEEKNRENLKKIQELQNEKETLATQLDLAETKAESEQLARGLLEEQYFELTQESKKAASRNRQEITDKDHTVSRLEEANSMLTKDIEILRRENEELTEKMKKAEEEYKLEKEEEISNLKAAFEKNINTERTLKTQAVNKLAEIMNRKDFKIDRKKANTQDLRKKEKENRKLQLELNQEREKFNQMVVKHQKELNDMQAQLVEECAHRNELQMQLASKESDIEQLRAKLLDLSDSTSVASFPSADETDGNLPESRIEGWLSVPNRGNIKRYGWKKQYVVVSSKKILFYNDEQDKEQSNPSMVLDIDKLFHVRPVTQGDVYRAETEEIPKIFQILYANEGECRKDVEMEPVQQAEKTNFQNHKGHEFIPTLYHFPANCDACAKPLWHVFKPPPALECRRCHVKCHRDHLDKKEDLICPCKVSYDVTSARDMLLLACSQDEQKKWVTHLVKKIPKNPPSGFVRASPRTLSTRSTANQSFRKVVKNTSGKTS

[3] = molecular target: cAMP-dependent protein kinase type II-alpha regulatory subunit (Homo sapiens, UniProt P13861)
cAMP-dependent protein kinase type II-alpha regulatory subunit, sequence (P13861 whole entry): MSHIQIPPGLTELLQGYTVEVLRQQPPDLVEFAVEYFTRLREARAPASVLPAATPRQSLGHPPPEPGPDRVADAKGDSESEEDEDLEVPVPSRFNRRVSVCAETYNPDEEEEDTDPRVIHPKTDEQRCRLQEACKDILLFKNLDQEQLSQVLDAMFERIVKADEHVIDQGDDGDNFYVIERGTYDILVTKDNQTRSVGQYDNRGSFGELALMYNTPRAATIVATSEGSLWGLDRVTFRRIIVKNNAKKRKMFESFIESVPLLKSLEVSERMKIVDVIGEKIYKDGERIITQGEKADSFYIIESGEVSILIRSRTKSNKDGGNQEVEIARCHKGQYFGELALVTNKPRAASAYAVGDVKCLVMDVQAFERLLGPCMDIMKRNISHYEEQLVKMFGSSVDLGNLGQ

[4] = molecular target: T2, ATP-dependent RNA helicase DHX30 (Homo sapiens, UniProt Q7L2E3)
T2 sequence (Q7L2E3 whole entry): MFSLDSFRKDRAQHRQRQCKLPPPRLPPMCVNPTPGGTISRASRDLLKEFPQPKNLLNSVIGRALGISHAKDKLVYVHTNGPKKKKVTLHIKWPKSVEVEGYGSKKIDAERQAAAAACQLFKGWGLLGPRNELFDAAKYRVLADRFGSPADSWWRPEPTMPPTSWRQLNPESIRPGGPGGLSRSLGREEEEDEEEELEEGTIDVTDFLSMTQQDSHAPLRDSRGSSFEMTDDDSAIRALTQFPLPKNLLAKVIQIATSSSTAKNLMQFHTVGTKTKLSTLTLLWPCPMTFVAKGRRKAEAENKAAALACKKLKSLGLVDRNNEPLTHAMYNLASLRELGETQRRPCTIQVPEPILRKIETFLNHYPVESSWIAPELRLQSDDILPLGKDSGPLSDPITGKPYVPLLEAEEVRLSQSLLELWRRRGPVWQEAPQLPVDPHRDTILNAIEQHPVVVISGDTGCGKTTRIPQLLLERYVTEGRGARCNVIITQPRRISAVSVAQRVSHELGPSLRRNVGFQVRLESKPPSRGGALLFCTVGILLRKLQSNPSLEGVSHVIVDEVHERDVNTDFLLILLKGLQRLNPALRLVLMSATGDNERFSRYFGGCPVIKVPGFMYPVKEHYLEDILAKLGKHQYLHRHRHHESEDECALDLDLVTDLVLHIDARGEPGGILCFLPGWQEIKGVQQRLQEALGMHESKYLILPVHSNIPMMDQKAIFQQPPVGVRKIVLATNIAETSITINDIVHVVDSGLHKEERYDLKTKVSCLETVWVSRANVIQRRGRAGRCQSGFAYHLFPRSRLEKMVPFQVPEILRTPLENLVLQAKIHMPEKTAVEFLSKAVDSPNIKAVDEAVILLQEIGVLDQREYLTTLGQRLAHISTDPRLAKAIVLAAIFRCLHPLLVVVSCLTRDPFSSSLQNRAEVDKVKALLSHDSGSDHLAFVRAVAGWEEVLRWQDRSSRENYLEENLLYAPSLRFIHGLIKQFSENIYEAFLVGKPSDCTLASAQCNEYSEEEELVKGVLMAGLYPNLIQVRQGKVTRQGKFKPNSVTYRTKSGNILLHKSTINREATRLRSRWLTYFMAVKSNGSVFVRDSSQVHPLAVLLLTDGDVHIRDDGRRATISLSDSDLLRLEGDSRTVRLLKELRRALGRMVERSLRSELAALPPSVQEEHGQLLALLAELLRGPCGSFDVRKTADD

Myosin-14 = Myosin-14 (Homo sapiens, UniProt Q7Z406)
Myosin-14, sequence (Q7Z406 whole entry): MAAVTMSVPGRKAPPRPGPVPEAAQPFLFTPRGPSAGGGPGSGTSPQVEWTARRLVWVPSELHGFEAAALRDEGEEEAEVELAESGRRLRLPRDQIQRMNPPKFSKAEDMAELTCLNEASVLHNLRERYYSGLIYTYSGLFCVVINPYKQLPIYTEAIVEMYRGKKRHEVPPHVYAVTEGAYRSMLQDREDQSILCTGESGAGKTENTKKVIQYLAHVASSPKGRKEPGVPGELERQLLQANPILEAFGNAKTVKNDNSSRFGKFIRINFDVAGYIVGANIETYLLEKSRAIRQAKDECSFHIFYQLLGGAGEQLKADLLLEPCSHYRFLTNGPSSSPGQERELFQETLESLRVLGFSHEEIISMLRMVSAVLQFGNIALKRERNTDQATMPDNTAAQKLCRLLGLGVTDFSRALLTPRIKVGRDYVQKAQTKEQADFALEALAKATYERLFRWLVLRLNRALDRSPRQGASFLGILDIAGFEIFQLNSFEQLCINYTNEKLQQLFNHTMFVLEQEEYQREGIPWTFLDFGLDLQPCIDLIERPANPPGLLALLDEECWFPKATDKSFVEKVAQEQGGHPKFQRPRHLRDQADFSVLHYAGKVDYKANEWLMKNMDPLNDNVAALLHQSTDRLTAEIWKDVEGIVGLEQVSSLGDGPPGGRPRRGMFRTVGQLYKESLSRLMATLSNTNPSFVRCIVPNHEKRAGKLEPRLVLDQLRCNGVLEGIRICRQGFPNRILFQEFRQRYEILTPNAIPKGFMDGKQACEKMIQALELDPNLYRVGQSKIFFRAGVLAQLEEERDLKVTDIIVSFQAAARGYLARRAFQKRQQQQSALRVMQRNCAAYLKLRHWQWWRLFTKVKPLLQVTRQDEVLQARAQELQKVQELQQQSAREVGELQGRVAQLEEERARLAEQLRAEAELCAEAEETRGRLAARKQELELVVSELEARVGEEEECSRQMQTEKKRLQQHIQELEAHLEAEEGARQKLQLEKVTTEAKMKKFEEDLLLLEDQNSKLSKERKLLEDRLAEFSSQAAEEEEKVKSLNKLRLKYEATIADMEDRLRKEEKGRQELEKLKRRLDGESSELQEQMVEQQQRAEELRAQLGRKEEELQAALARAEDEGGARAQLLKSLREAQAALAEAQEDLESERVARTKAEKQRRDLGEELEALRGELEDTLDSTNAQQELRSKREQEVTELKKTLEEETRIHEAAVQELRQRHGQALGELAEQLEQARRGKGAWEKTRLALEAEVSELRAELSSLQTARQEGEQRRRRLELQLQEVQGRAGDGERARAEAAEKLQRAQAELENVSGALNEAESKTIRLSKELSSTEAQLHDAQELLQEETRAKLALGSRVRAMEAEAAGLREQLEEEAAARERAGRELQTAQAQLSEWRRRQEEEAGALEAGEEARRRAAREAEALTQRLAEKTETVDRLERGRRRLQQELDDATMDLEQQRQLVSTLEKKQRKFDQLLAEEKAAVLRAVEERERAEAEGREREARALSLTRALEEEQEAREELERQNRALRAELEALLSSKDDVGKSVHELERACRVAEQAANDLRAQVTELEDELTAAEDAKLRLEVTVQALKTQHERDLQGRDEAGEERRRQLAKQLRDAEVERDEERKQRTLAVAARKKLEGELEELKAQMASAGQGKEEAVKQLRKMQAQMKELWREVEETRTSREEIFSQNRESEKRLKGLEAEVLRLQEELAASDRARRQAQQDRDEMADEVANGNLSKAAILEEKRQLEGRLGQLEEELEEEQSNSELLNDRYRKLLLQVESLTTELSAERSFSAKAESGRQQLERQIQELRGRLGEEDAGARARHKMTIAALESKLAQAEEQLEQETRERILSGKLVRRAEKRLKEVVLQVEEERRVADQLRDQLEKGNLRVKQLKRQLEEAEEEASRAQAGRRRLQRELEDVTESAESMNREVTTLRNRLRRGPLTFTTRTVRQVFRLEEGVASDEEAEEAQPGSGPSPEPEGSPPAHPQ

[5] = molecular target: Atypical kinase COQ8A, mitochondrial (Homo sapiens, UniProt Q8NI60)
Atypical kinase COQ8A, mitochondrial, sequence (Q8NI60 whole entry): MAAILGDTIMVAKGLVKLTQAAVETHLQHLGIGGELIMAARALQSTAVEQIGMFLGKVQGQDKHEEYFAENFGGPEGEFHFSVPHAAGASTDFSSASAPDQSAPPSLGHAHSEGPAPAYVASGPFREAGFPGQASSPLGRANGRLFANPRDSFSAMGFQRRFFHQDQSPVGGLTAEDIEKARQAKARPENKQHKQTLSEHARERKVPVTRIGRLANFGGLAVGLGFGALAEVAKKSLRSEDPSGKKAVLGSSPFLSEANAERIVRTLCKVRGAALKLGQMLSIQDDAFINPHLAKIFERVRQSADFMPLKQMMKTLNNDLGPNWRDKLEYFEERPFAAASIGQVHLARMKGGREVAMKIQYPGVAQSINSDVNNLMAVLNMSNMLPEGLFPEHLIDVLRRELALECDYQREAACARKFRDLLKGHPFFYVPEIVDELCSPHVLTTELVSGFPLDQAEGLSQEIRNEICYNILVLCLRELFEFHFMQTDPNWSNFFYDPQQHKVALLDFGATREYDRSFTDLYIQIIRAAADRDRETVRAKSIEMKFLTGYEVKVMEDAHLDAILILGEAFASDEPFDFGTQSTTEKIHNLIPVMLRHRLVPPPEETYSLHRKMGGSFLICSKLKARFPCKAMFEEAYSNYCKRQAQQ

Scaffold protein ILK = molecular target: T3, Scaffold protein ILK (Homo sapiens, UniProt Q13418)
T3 sequence (Q13418 whole entry): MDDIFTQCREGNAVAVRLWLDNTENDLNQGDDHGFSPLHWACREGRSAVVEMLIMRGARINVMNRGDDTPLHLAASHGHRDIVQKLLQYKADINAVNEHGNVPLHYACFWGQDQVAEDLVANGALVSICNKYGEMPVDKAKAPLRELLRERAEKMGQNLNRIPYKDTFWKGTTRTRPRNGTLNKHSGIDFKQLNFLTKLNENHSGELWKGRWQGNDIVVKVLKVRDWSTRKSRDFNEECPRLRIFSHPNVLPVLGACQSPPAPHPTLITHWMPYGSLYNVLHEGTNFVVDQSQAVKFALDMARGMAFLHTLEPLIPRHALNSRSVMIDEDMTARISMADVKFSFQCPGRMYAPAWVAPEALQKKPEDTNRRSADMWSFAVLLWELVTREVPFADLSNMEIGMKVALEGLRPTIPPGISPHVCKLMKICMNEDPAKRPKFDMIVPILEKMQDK
Note: in the data inactive means no Kd found up to 30 µM.

Row | Kd [1] | Kd [2] | Kd [3] | Kd [4] | Kd (Myosin-14) | Kd [5] | Kd (Scaffold protein ILK) | Compound
1 | > 30 µM (inactive) | > 30 µM (inactive) | > 30 µM (inactive) | > 30 µM (inactive) | > 30 µM (inactive) | > 30 µM (inactive) | > 30 µM (inactive) | CO[C@H]1C[C@@H]2CC[C@@H](C)[C@@](O)(O2)C(=O)C(=O)N2CCCC[C@H]2C(=O)O[C@H]([C@H](C)C[C@@H]2CC[C@@H](OCCO)[C@H](OC)C2)CC(=O)[C@H](C)/C=C(\C)[C@@H](O)[C@@H](OC)C(=O)[C@H](C)C[C@H](C)/C=C/C=C/C=C/1C [EVEROLIMUS]
2 | > 30 µM (inactive) | > 30 µM (inactive) | > 30 µM (inactive) | > 30 µM (inactive) | > 30 µM (inactive) | > 30 µM (inactive) | > 30 µM (inactive) | COc1ccc(-c2ccc3c(N4CCOC[C@@H]4C)nc(N4CCOC[C@@H]4C)nc3n2)cc1CO [AZD-8055]
3 | > 30 µM (inactive) | > 30 µM (inactive) | > 30 µM (inactive) | > 30 µM (inactive) | > 30 µM (inactive) | > 30 µM (inactive) | > 30 µM (inactive) | O=C(O)[C@]1(Cc2cccc(Nc3nccs3)n2)CC[C@@H](Oc2cccc(Cl)c2F)CC1 [MK-5108]
4 | > 30 µM (inactive) | > 30 µM (inactive) | > 30 µM (inactive) | > 30 µM (inactive) | > 30 µM (inactive) | > 30 µM (inactive) | > 30 µM (inactive) | CNC(=O)c1ccc(-c2cnc3ncc(Cc4ccc5ncccc5c4)n3n2)cc1F [CAPMATINIB]

Row | Compound | Kd [1] | Kd [2] | Kd [3] | Kd [4] | Kd (Myosin-14) | Kd [5] | Kd (Scaffold protein ILK)
5 | COC(=O)[C@@]1(O)C[C@H]2O[C@]1(C)n1c3ccccc3c3c4c(c5c6ccccc6n2c5c31)C(=O)NC4 [K-252A] | > 30 µM (inactive) | > 30 µM (inactive) | > 30 µM (inactive) | > 30 µM (inactive) | > 30 µM (inactive) | > 30 µM (inactive) | > 30 µM (inactive)

Reference: ChEMBL document CHEMBL3991601, “The target landscape of clinical kinase drugs” (Science, 2017)
